Our source for the minimal effective concentration values is patent publication US8778964B2, “Hydroxy-substituted imidazo[1,2-a]-pyridinecarboxamides and their use” (Bayer Pharma Aktiengesellschaft, priority 2012, dated 2014).

Counter-ions that a name gives are not always drawn.

This test relates to recombinant guanylate cyclase reporter cell line. Briefly: Action on recombinant guanylate cyclase reporter cell line (MEC). The class given is cell-based. To be noted: in some cases mean values obtained from individual determinations. In a few lines: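 Cell-based reporter assay with recombinant guanylate cyclase expressed in a reporter cell line, per a published method. Activity reported as minimal effective concentration (MEC), in some cases as the mean of individual determinations.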
As for `Cc1nc2c(OCC3CCCCC3)cccn2c1C(=O)NC[C@H](O)CO` [Example 68, 8-(cyclohexylmethoxy)-N-[(2S)-2,3-dihydroxypropyl]-2-methylimidazo[1,2-a]pyridine-3-carboxamide], the minimal effective concentration amounted to 0.03 µM.

In the case of `CC[C@H](CO)NC(=O)c1c(C)nc2c(OCC3CCCCC3)cccn12` [Example 72, 8-(cyclohexylmethoxy)-N-[(2R)-1-hydroxybutan-2-yl]-2-methylimidazo[1,2-a]pyridine-3-carboxamide], the minimal effective concentration turned out to be 0.1 µM.

As for `Cc1nc2c(OCC3CCCCC3)cccn2c1C(=O)NCCCCO` [Example 74, 8-(cyclohexylmethoxy)-N-(4-hydroxybutyl)-2-methylimidazo[1,2-a]pyridine-3-carboxamide], the minimal effective concentration came out at 0.2 µM.

Turning to `Cc1nc2c(OCC3CCCCC3)cccn2c1C(=O)N[C@@H](C)CO` [Example 75, 8-(cyclohexylmethoxy)-N-[(2S)-1-hydroxypropan-2-yl]-2-methylimidazo[1,2-a]pyridine-3-carboxamide], the minimal effective concentration was 0.22 µM.

As to `Cc1nc2c(OCC3CCCCC3)cccn2c1C(=O)NCCO` [Example 76, 8-(cyclohexylmethoxy)-N-(2-hydroxyethyl)-2-methylimidazo[1,2-a]pyridine-3-carboxamide formate], the minimal effective concentration is 0.3 µM.

In the case of `Cc1nc2c(OCC3CCCCC3)cccn2c1C(=O)NC(CO)(CO)CO` [Example 77, 8-(cyclohexylmethoxy)-N-[1,3-dihydroxy-2-(hydroxymethyl)propan-2yl]-2-methylimidazo[1,2-a]pyridine-3-carboxamide formate], the minimal effective concentration is 0.3 µM.

In the case of `COCC(O)CNC(=O)c1c(C)nc2c(OCC3CCCCC3)cccn12` (stereo not shown) [Example 79, 8-(cyclohexylmethoxy)-N-(2-hydroxy-3-methoxypropyl)-2-methylimidazo[1,2-a]pyridine-3-carboxamide], the minimal effective concentration stood at 0.3 µM.

For the molecule `Cc1nc2c(OCC3CCCCC3)cccn2c1C(=O)NC[C@@H](O)CO` [Example 80, 8-(cyclohexylmethoxy)-N-[(2R)-2,3-dihydroxypropyl]-2-methylimidazo[1,2-a]pyridine-3-carboxamide], the minimal effective concentration came to 0.3 µM.

`Cc1nc2c(OCC3CCCCC3)cccn2c1C(=O)NCCCO` [Example 82, 8-(cyclohexylmethoxy)-N-(3-hydroxypropyl)-2-methylimidazo[1,2-a]pyridine-3-carboxamide]: the minimal effective concentration is 0.3 µM.

As for `Cc1nc2c(OCC3CCCCC3)cccn2c1C(=O)NC1CCCC1O` (stereo not shown) [Example 83, 8-(cyclohexylmethoxy)-N-(2-hydroxycyclopentyl)-2-methylimidazo[1,2-a]pyridine-3-carboxamide], the minimal effective concentration stood at 0.3 µM.

As for `Cc1nc2c(OCC3CCCCC3)cccn2c1C(=O)NC(C)CO` (stereo not shown) [Example 84, 8-(cyclohexylmethoxy)-N-(1-hydroxypropan-2-yl)-2-methylimidazo[1,2-a]pyridine-3-carboxamide], the minimal effective concentration came out at 0.3 µM.

Take `Cc1nc2c(OCC3CCCCC3)cccn2c1C(=O)NC(CO)CO` [Example 85, 8-(cyclohexylmethoxy)-N-(1,3-dihydroxypropan-2-yl)-2-methylimidazo[1,2-a]pyridine-3-carboxamide]: the minimal effective concentration was found to be 0.38 µM.

As to `Cc1nc2c(OCC3CCCCC3)cccn2c1C(=O)NCCOCCO` [Example 86, 8-(cyclohexylmethoxy)-N-[2-(2-hydroxyethoxy)ethyl]-2-methylimidazo[1,2-a]-pyridine-3-carboxamide], the minimal effective concentration turned out to be 0.65 µM.

In the case of `Cc1nc2c(OCC3CCCCC3)cccn2c1C(=O)NC(C)(C)C(C)O` (stereo not shown) [Example 87, 8-(cyclohexylmethoxy)-N-(3-hydroxy-2-methylbutan-2-yl)-2-methylimidazo[1,2-a]pyridine-3-carboxamide], the minimal effective concentration is 1 µM.

With `CC[C@@H](CO)NC(=O)c1c(C)nc2c(OCC3CCCCC3)cccn12` [Example 88, 8-(cyclohexylmethoxy)-N-[(2S)-1-hydroxybutan-2-yl]-2-methylimidazo[1,2-a]pyridine-3-carboxamide], the minimal effective concentration amounted to 1 µM.

Consider `CCC[C@@H](CO)NC(=O)c1c(C)nc2c(OCC3CCCCC3)cccn12` [Example 89, 8-(cyclohexylmethoxy)-N-[(2S)-1-hydroxypentan-2-yl]-2-methylimidazo[1,2-a]pyridine-3-carboxamide], for which the minimal effective concentration is 1 µM.

Regarding `CSCC[C@@H](CO)NC(=O)c1c(C)nc2c(OCC3CCCCC3)cccn12` [Example 90, 8-(cyclohexylmethoxy)-N-[(2S)-1-hydroxy-4-(methylsulphanyl)butan-2-yl]-2-methylimidazo[1,2-a]pyridine-3-carboxamide], the minimal effective concentration turned out to be 1 µM.

With `CC[C@H](C)[C@@H](CO)NC(=O)c1c(C)nc2c(OCC3CCCCC3)cccn12` [Example 91, 8-(cyclohexylmethoxy)-N-[(2S,3S)-1-hydroxy-3-methylpentan-2-yl]-2-methylimidazo[1,2-a]pyridine-3-carboxamide], the minimal effective concentration worked out at 1 µM.

`Cc1nc2c(OCC3CCCCC3)cccn2c1C(=O)NC1(CO)CCCC1` [Example 92, 8-(cyclohexylmethoxy)-N-[1-(hydroxymethyl)cyclopentyl]-2-methylimidazo[1,2-a]pyridine-3-carboxamide]: the minimal effective concentration was 1 µM.

As to `Cc1nc2c(OCC3CCCCC3)cccn2c1C(=O)N[C@H](CO)C(C)C` [Example 93, 8-(cyclohexylmethoxy)-N-[(2S)-1-hydroxy-3-methylbutan-2-yl]-2-methylimidazo[1,2-a]pyridine-3-carboxamide], the minimal effective concentration amounted to 1 µM.

As to `Cc1nc2c(OCC3CCCCC3)cccn2c1C(=O)NC(CO)COC(C)(C)C` (stereo not shown) [Example 94, N-(1-tert-butoxy-3-hydroxypropan-2-yl)-8-(cyclohexylmethoxy)-2-methylimidazo[1,2-a]-pyridine-3-carboxamide], the minimal effective concentration came out at 3 µM.

On to `Cc1nc2c(OCC3CCCCC3)cccn2c1C(=O)N[C@H](CO)CC(C)C` [Example 95, 8-(cyclohexylmethoxy)-N-[(2S)-1-hydroxy-4-methylpentan-2-yl]-2-methylimidazo[1,2-a]pyridine-3-carboxamide], for which the minimal effective concentration stood at 3 µM.

Take `CCC(C)[C@H](CO)NC(=O)c1c(C)nc2c(OCC3CCCCC3)cccn12` (stereo partly drawn) [Example 96, 8-(cyclohexylmethoxy)-N-[(2R)-1-hydroxy-3-methylpentan-2-yl]-2-methylimidazo[1,2-a]pyridine-3-carboxamide]: the minimal effective concentration amounted to 3 µM.

Consider `Cc1nc2c(OCC3CCC3)cccn2c1C(=O)NCCC1(O)CCCC1` [Example 97, 8-(cyclobutylmethoxy)-N-[2-(1-hydroxycyclopentyl)ethyl]-2-methylimidazo[1,2-a]pyridine-3-carboxamide], for which the minimal effective concentration was 1 µM.

On to `Cc1nc2c(OCC3CCC3)cccn2c1C(=O)NCCOCCO` [Example 98, 8-(cyclobutylmethoxy)-N-[2-(2-hydroxyethoxy)ethyl]-2-methylimidazo[1,2-a]pyridine-3-carboxamide], for which the minimal effective concentration is 3 µM.

As to `Cc1nc2c(OCC3CCC3)cccn2c1C(=O)NCCC1(O)CCCCC1` [Example 99, 8-(cyclobutylmethoxy)-N-[2-(1-hydroxycyclohexyl)ethyl]-2-methylimidazo[1,2-a]pyridine-3-carboxamide], the minimal effective concentration is 3 µM.

With `[2H]C([2H])(Oc1cccn2c(C(=O)N[C@@H](CO)CCCC)c(C)nc12)c1c(F)cccc1F` [Example 115, 8-{[(2,6-difluorophenyl)(^2H2)methyl]oxy}-N-[(2R)-1-hydroxyhexan-2-yl]-2-methylimidazo[1,2-a]pyridine-3-carboxamide], the minimal effective concentration was 0.01 µM.

In the case of `Cc1nc2c(OCc3c(F)cccc3F)cccn2c1C(=O)NCCC1(O)CCCCC1` [Example 116, 8-[(2,6-difluorobenzyl)oxy]-N-[2-(1-hydroxycyclohexyl)ethyl]-2-methylimidazo[1,2-a]pyridine-3-carboxamide], the minimal effective concentration came out at 0.3 µM.

Consider `Cc1nc2c(OCc3c(F)cccc3F)cccn2c1C(=O)NCCC1(O)CCCC1` [Example 117, 8-[(2,6-difluorobenzyl)oxy]-N-[2-(1-hydroxycyclopentyl)ethyl]-2-methylimidazo[1,2-a]pyridine-3-carboxamide], for which the minimal effective concentration is 0.03 µM.

In the case of `Cc1nc2c(OCc3c(F)cccc3F)cccn2c1C(=O)N[C@H](C)CO` [Example 118, 8-[(2,6-difluorobenzyl)oxy]-N-[(2R)-1-hydroxypropan-2-yl]-2-methylimidazo[1,2-a]-pyridine-3-carboxamide], the minimal effective concentration was found to be 0.3 µM.

Consider `Cc1nc2c(OCc3c(F)cccc3F)cccn2c1C(=O)NC1(CO)CCC1` [Example 125, 8-[(2,6-Difluorobenzyl)oxy]-N-[1-(hydroxymethyl)cyclobutyl]-2-methylimidazo[1,2-a]pyridine-3-carboxamide], for which the minimal effective concentration was determined as 0.3 µM.

`C#Cc1cc(OCc2c(F)cccc2F)c2nc(C)c(C(=O)N[C@@H](CO)CCCC)n2c1` [Example 126, 8-[(2,6-Difluorobenzyl)oxy]-6-ethynyl-N-[(2R)-1-hydroxyhexan-2-yl]-2-methylimidazo[1,2-a]-pyridine-3-carboxamide]: the minimal effective concentration is 0.1 µM.

On to `Cc1nc2c(OCc3c(F)cccc3F)cc(Cl)cn2c1C(=O)N[C@@H](CO)CCCO` [Example 127, 6-Chloro-8-[(2,6-difluorobenzyl)oxy]-N-[(2R)-1,5-dihydroxypentan-2-yl]-2-methylimidazo[1,2-a]-pyridine-3-carboxamide], for which the minimal effective concentration turned out to be 0.3 µM.

Regarding `Cc1nc2c(OCc3c(F)cccc3F)cc(Cl)cn2c1C(=O)N[C@@H](CO)CCO` [Example 128, 6-chloro-8-[(2,6-difluorobenzyl)oxy]-N-[(2R)-1,4-dihydroxybutan-2-yl]-2-methylimidazo[1,2-a]pyridine-3-carboxamide], the minimal effective concentration came to 0.3 µM.

As usually defined, the minimal effective concentration is the smallest amount tested that counted as effective.
